Data on one compound can be found in publication PMC8952208, “Synthesis, Antiplasmodial, and Antileukemia Activity of Dihydroartemisinin–HDAC Inhibitor Hybrids as Multitarget Drugs” (Pharmaceuticals, 2022).

For assay [1], the system named is acetylation of α-tubulin (marker of HDAC6 inhibition). Description: Immunoblotting, acetyl-α-tubulin in K562 cells. The format is cell-based, human. As to conditions: 0.4 µM, 24 h. The procedure:
(§1) K562 cells were treated with the indicated concentration of the compounds or vehicle control (DMSO) for 24 h. The recovered cell pellets were lysed with RIPA buffer (50 mM Tris-HCl pH 8.0, 1% Triton X-100, 0.5% sodium deoxycholate, 0.1% SDS, 150 mM sodium chloride, and 2 mM EDTA), supplemented with protease and phosphatase inhibitors (Thermofischer Scientific, Waltham, MA, USA). An equal amount of total protein (20 µg) was resolved by SDS-PAGE and followed by transfer on nitrocellulose membrane (Sigma-Aldrich). PageRuler prestained protein ladder, 10 kDa to 180 kDa (Thermofisher Scientific, Waltham, MA, USA) was used as a protein molecular weight marker.
(In general: A western blot detects proteins with antibodies after separation by electrophoresis.)

In assay [2] the test system is acetylation of histone H3 (marker of HDAC1 inhibition). Description: Immunoblotting, acetyl-histone H3 in K562 cells. Format: cell-based, human. The settings on record: 0.4 µM, 24 h. As for the experimental part:
as §1

Molecules are shown by their SMILES.

As for `O=C(CCCCCCC(=O)Nc1ccccc1)NO` [Vorinostat, vorinostat], the “acetylation of α-tubulin (immunoblot)” value in assay [1] was “caused hyperacetylation of α-tubulin and histone H3”. Further, in assay [2], the “acetylation of histone H3 (immunoblot)” value was “caused hyperacetylation of α-tubulin and histone H3”.
